# Source: US5658880A, “Sialic acid/fucose based medicaments” (Glycomed Incorporated, priority 1994, dated 1997)
# Key:
# [1] = test system: E-selectin; experiment: ELISA: inhibition of E-selectin-IgG chimera binding to 2,3 sLe^x glycolipid; set-up: species or system human
# Text: (§1) An ELISA assay is preferably used that employs recombinant fusion proteins composed of extracellular portions of the human selectins joined to human immunoglobulin heavy chain CH3, CH2, and hinge regions. See, for example, Walz et al., Science (1990) 250:1132; Aruffo et al., Cell (1991) 67:35; Aruffo et al., Proc. Natl. Acad. Sci. USA. (1992) 89:2292. The assay is well known in the art, and generally consists of the following three steps:
# I. 2,3 sLe^x glycolipid (25 picomole/well) was transferred into microtiter wells as solutions and then evaporated off. Excess, which remained unattached, was washed off with water. The wells were then blocked with 5% BSA at room temperature for an hour and then washed with PBS containing 1 mM calcium.
# II. Preparation of "multivalent" receptor of the Selectin-lgG chimera was carried out by combining the respective chimera (1 μg/mL) with biotin labelled goat F(ab')2 anti-human IgG (Fc specific) and streptavidin-alkaline phosphatase diluted 1:1000 in 1% BSA-PBS (1 mM calcium) and incubating at 37° C. for 15 min. This allowed the soluble multivalent receptor complex to form. III. Potential inhibitors such as the compounds of formula I or II were allowed to react with the soluble receptor at 37° C. for 45 min. This test assumes that optimal binding, between the soluble phase receptor complex and the inhibitor (non natural ligand), would have occurred within this time frame. This solution was then placed in the microtiter wells that were prepared in step I. The plate was incubated at 37° C. for 45 minutes to allow the soluble receptor to bind to its natural ligand. In the presence of a strong inhibitor only a few receptors should be free to bind to the microtiter plate coated with the natural ligand.
# The positive control is the signal produced by the soluble receptor when it is allowed to react with 2,3 sLe^x glycolipid in the microtiter wells in the absence of any inhibitor. This positive control was considered 100% binding. The signal produced by the receptor that had been previously treated with an inhibitor (recorded as O.D.), was divided by the signal produced by the positive control and multiplied by 100 to calculate the % receptor bound to the well in the presence of the inhibitor. The reciprocal of this number is the % inhibition.
# as §1, with “was employed” for “is preferably used”, “uses” for “employs”, “USA” for “USA.”
# II. Preparation of "multivalent" receptor of the Selectin-IgG chimera was carried out by combining the respective chimera 1 μg/ml) with biotin labelled goat F(ab')2 anti-human IgG (Fc specific) and streptavidin-alkaline phosphatase diluted 1:1000 in 1% BSA-PBS (1 mM calcium) and incubating at 37° C. for 15 min. This allowed the soluble multivalent receptor complex to form.
# III. Potential inhibitors such as compounds of formula I or II were allowed to react with the soluble receptor at 37° C. for 45 min. This test assumes that optimal binding, between the soluble phase receptor complex and the inhibitor (non natural ligand), would have occurred within this time frame. This solution was then placed in the microtiter wells that were prepared in step I. The plate was incubated at 37° C. for 45 minutes to allow the soluble receptor to bind to its natural ligand. In the presence of a strong inhibitor only a few receptors should be free to bind to the microtiter plate coated with the natural ligand.
# The positive control is the signal produced by the soluble receptor when it is allowed to react with 2,3 sLe^x glycolipid in the microtiter wells in the absence of any inhibitor. This was considered 100% binding. […]
# [2] = test system: P-selectin; experiment: Flow cytometric assay: inhibition of P-selectin-IgG binding to HL-60 cells; type: cell-based, human; set-up: unit of the concentration uncertain
# Protocol: The interaction of P-selectin and its cellular ligand was studied using a flow cytometric assay (Erbe, D. V. et al., J. Cell Biol. (1993) 120:1227). HL60 cells (maintained in high glucose DME plus 10% Hyclone FBS) were used in this assay. Before staining with P-selectin-IgG the cells were preincubated in Dulbecco's PBS/1% BSA/0.1% sodium azide/1% normal rabbit serum (staining medium) for 30-60 mins on ice. After this initial incubation, 1 μg of P-selectin-IgG was added to 100 μl aliquots of 10^6 cells and incubated for 30-60 mins on ice. The cells were when washed with staining medium and resuspended in 100 μl of staining medium to which was added 2 μl of a phycoerythrin-conjugated F(ab')^2 goat anti-human IgG (Fc specific). The cells were incubated for 15-30 mins on ice, washed twice with staining medium, and resuspended in 0.5 ml of staining medium before flow cytometric analysis on a FACScan (Becton Dickinson & Co., Mountain View, Calif.). To determine that the staining was an interaction of P-selectin with its ligand, the staining was also done in the presence of 10 mM EGTA. To determine the protease sensitivity and the requirement for sialic acid of this interaction, HL-60 cells in D-PBS and 1% BSA were incubated with either trypsin or Arthrobacter or Clostridium sialidases at 37° C. before resuspending in staining medium. To examine the ability of various carbohydrates to inhibit staining, 50 μg/ml fucoidin (Sigma Immunochemicals, St. Louis, Mo.), 50 μg/ml dextran sulfate (Pharmacia Fine Chemicals, Piscataway, N.J.), 10 mg/ml mannose-1-phosphate (Sigma Immunochemicals), or 10 mg/ml mannose-6-phosphate (Sigma Immunochemicals) was added to cells immediately before the addition of the P-selectin chimera. Each carbohydrate was then present until the cells were washed before the addition of the second stage antibody. A potential complication of this FACS assay arose from the use of selectin-IgG chimeras to stain cells which bear human IgG Fc receptors (FcγR; Fanger, M. W., et al., Immunol. Today (1989) 10:92). Adding rabbit IgG (in the form of normal rabbit serum) to the assay medium blocked this binding in most cases.
smiles,measurement,setting,value
"CC(=O)NC1C(O)CC(OCCCCCCOC2OC(C)C(O)C(O)C2O)(C(=O)O)OC1C(O)C(O)CO [Compound 7, 1-O-α-Neu5Ac-(6-O-α-L-Fucopyranosyl)-Hexane]","inhibition of E-selectin binding to 2,3 sLe^x glycolipid","[1]; FIG. 4, result in words","inhibit E-selectin binding to 2,3 sLe^x glycolipid"
same,IC50,"[1]; inhibition of binding to 2,3 sLex glycolipid",> 4 mM
same,Inhibition (%) of P-selectin-IgG binding to HL-60 cells,[2]; 10 (unit uncertain),60%
same,Inhibition (%) of P-selectin-IgG binding to HL-60 cells,[2]; 50 (unit uncertain),80%
same,Inhibition (%) of P-selectin-IgG binding to HL-60 cells,[2]; 100 (unit uncertain),80%
